From the NIST ThermoML archive (doi:10.1016/j.fluid.2015.03.016)
Values joined by “and” are separate entries in the source; they are usually repeats but may differ in a detail not shown here. Identical values can stand only once.

Details: Liquid, Vibrating wire viscometry

CCCCOC(=O)CCCCC(=O)OCCCC [dibutyl hexanedioate]
Details	viscosity
333.15 K, 5090 kPa	2.366 mPa·s
333.15 K, 5100 kPa	2.361 mPa·s and 2.362 mPa·s
333.15 K, 5210 kPa	2.361 mPa·s and 2.365 mPa·s
333.15 K, 5220 kPa	2.366 mPa·s
333.15 K, 7790 kPa	2.42 mPa·s and 2.421 mPa·s
333.15 K, 7800 kPa	2.421 mPa·s
333.15 K, 10100 kPa	2.493 mPa·s
333.15 K, 10120 kPa	2.495 mPa·s
333.15 K, 10130 kPa	2.495 mPa·s
333.15 K, 10160 kPa	2.493 mPa·s
333.15 K, 14860 kPa	2.621 mPa·s
333.15 K, 15150 kPa	2.62 mPa·s
333.15 K, 15240 kPa	2.619 mPa·s
333.15 K, 15260 kPa	2.625 mPa·s
333.15 K, 20250 kPa	2.763 mPa·s
333.15 K, 20260 kPa	2.76 mPa·s
333.15 K, 20270 kPa	2.761 mPa·s
333.15 K, 20290 kPa	2.76 mPa·s
333.15 K, 29840 kPa	3.05 mPa·s
333.15 K, 29880 kPa	3.043 mPa·s
333.15 K, 30130 kPa	3.05 mPa·s
333.15 K, 30150 kPa	3.042 mPa·s
333.15 K, 30230 kPa	3.047 mPa·s
333.15 K, 39970 kPa	3.331 mPa·s
333.15 K, 40020 kPa	3.332 mPa·s
333.15 K, 40070 kPa	3.33 mPa·s
333.15 K, 40080 kPa	3.335 mPa·s
333.15 K, 49990 kPa	3.644 mPa·s
333.15 K, 50000 kPa	3.638 mPa·s and 3.636 mPa·s and 3.632 mPa·s
333.15 K, 61450 kPa	4.065 mPa·s
333.15 K, 61480 kPa	4.064 mPa·s
333.15 K, 61600 kPa	4.055 mPa·s
333.15 K, 61660 kPa	4.057 mPa·s
333.16 K, 2490 kPa	2.298 mPa·s
333.16 K, 2580 kPa	2.299 mPa·s
333.16 K, 5220 kPa	2.361 mPa·s
333.16 K, 7780 kPa	2.422 mPa·s
343.14 K, 20120 kPa	2.335 mPa·s and 2.332 mPa·s
343.14 K, 39830 kPa	2.803 mPa·s
343.14 K, 39840 kPa	2.809 mPa·s
343.14 K, 39860 kPa	2.807 mPa·s
343.14 K, 39870 kPa	2.804 mPa·s
343.14 K, 39880 kPa	2.81 mPa·s
343.14 K, 65480 kPa	3.489 mPa·s
343.14 K, 65500 kPa	3.484 mPa·s
343.15 K, 1100 kPa	1.917 mPa·s and 1.916 mPa·s
343.15 K, 1170 kPa	1.915 mPa·s
343.15 K, 1240 kPa	1.914 mPa·s
343.15 K, 1260 kPa	1.918 mPa·s and 1.915 mPa·s
343.15 K, 2480 kPa	1.949 mPa·s
343.15 K, 2500 kPa	1.945 mPa·s and 1.947 mPa·s
343.15 K, 2520 kPa	1.948 mPa·s
343.15 K, 2530 kPa	1.95 mPa·s
343.15 K, 2580 kPa	1.946 mPa·s
343.15 K, 4960 kPa	1.993 mPa·s
343.15 K, 4970 kPa	1.994 mPa·s
343.15 K, 4980 kPa	1.992 mPa·s
343.15 K, 4990 kPa	1.989 mPa·s
343.15 K, 7500 kPa	2.054 mPa·s
343.15 K, 7510 kPa	2.057 mPa·s and 2.059 mPa·s
343.15 K, 7520 kPa	2.056 mPa·s
343.15 K, 10030 kPa	2.118 mPa·s
343.15 K, 10040 kPa	2.117 mPa·s and 2.119 mPa·s
343.15 K, 10090 kPa	2.117 mPa·s
343.15 K, 15220 kPa	2.224 mPa·s
343.15 K, 15240 kPa	2.222 mPa·s
343.15 K, 15260 kPa	2.221 mPa·s
343.15 K, 20040 kPa	2.334 mPa·s
343.15 K, 20160 kPa	2.337 mPa·s
343.15 K, 20210 kPa	2.335 mPa·s
343.15 K, 20240 kPa	2.332 mPa·s
343.15 K, 20270 kPa	2.331 mPa·s
343.15 K, 20280 kPa	2.335 mPa·s
343.15 K, 30090 kPa	2.562 mPa·s
343.15 K, 30130 kPa	2.561 mPa·s
343.15 K, 30140 kPa	2.566 mPa·s
343.15 K, 30150 kPa	2.561 mPa·s and 2.564 mPa·s
343.15 K, 30160 kPa	2.566 mPa·s
343.15 K, 39830 kPa	2.806 mPa·s
343.15 K, 50080 kPa	3.08 mPa·s and 3.083 mPa·s
343.15 K, 65610 kPa	3.482 mPa·s
343.15 K, 65620 kPa	3.49 mPa·s
358.15 K, 2510 kPa	1.559 mPa·s
358.15 K, 2520 kPa	1.559 mPa·s and 1.56 mPa·s
358.15 K, 5050 kPa	1.594 mPa·s and 1.593 mPa·s
358.15 K, 5060 kPa	1.594 mPa·s and 1.595 mPa·s
358.15 K, 5240 kPa	1.601 mPa·s
358.15 K, 9930 kPa	1.688 mPa·s
358.15 K, 10010 kPa	1.69 mPa·s
358.15 K, 15060 kPa	1.769 mPa·s and 1.766 mPa·s and 1.764 mPa·s
358.15 K, 15100 kPa	1.768 mPa·s
358.15 K, 15130 kPa	1.765 mPa·s
358.15 K, 20130 kPa	1.863 mPa·s
358.15 K, 30280 kPa	2.045 mPa·s
358.15 K, 30290 kPa	2.042 mPa·s and 2.044 mPa·s
358.15 K, 30300 kPa	2.041 mPa·s
358.15 K, 30310 kPa	2.043 mPa·s
358.15 K, 30320 kPa	2.046 mPa·s
358.15 K, 39960 kPa	2.223 mPa·s
358.15 K, 39990 kPa	2.219 mPa·s
358.15 K, 40010 kPa	2.219 mPa·s
358.15 K, 40040 kPa	2.222 mPa·s
358.15 K, 40060 kPa	2.219 mPa·s
358.16 K, 1080 kPa	1.521 mPa·s
358.16 K, 1090 kPa	1.524 mPa·s and 1.523 mPa·s and 1.521 mPa·s
358.16 K, 2510 kPa	1.559 mPa·s
358.16 K, 2540 kPa	1.558 mPa·s
358.16 K, 5180 kPa	1.6 mPa·s
358.16 K, 5200 kPa	1.597 mPa·s
358.16 K, 5240 kPa	1.599 mPa·s
358.16 K, 7560 kPa	1.645 mPa·s and 1.644 mPa·s and 1.643 mPa·s
358.16 K, 20120 kPa	1.868 mPa·s and 1.866 mPa·s
358.16 K, 20130 kPa	1.868 mPa·s
358.16 K, 20160 kPa	1.863 mPa·s
358.16 K, 40080 kPa	2.223 mPa·s
358.16 K, 50160 kPa	2.426 mPa·s and 2.429 mPa·s
358.16 K, 50170 kPa	2.424 mPa·s and 2.427 mPa·s
358.16 K, 65550 kPa	2.761 mPa·s and 2.757 mPa·s and 2.758 mPa·s
373.14 K, 2490 kPa	1.265 mPa·s
373.14 K, 10000 kPa	1.376 mPa·s and 1.374 mPa·s
373.14 K, 15040 kPa	1.442 mPa·s
373.14 K, 15050 kPa	1.443 mPa·s
373.14 K, 29940 kPa	1.668 mPa·s
373.15 K, 1060 kPa	1.253 mPa·s
373.15 K, 1120 kPa	1.255 mPa·s
373.15 K, 1160 kPa	1.254 mPa·s
373.15 K, 2590 kPa	1.264 mPa·s
373.15 K, 2600 kPa	1.264 mPa·s
373.15 K, 5080 kPa	1.302 mPa·s and 1.301 mPa·s and 1.303 mPa·s
373.15 K, 7600 kPa	1.342 mPa·s and 1.341 mPa·s
373.15 K, 7610 kPa	1.341 mPa·s
373.15 K, 10090 kPa	1.375 mPa·s
373.15 K, 10130 kPa	1.374 mPa·s
373.15 K, 15060 kPa	1.441 mPa·s
373.15 K, 15070 kPa	1.443 mPa·s
373.15 K, 20220 kPa	1.518 mPa·s
373.15 K, 20230 kPa	1.518 mPa·s
373.15 K, 20250 kPa	1.516 mPa·s
373.15 K, 29920 kPa	1.669 mPa·s
373.15 K, 29980 kPa	1.667 mPa·s
373.15 K, 30000 kPa	1.667 mPa·s
373.15 K, 50030 kPa	1.976 mPa·s [middle of 4 runs]
373.15 K, 65350 kPa	2.231 mPa·s and 2.229 mPa·s
